Reference: US20240247080A1, “GLP1/GIP/NPY2 RECEPTOR TRIPLE AGONISTS” (Boehringer Ingelheim International GmbH, priority 2022, published 2024)
Read-outs that look alike come from different tables or passages of the source. Starred links: 1 amine or outer side, 2 acyl side, 3 side chain; linkers in the order of their positions; H or OH if unused. Non-standard residues stand in square brackets, D forms with d. Groups on a side chain read outwards from the residue. *: point of attachment. C20 diacid = O=C(O)CCCCCCCCCCCCCCCCCCC(=O)*; C18 diacid = O=C(O)CCCCCCCCCCCCCCCCC(=O)*; γGlu = O=C(O)[C@H](CCC(=O)[*:2])N[*:1]; εLys = N[C@@H](CCCCN[*:1])C(=O)[*:2]; AEEA = NCCOCCOCC(=O)O; Aib = CC(C)(N)C(=O)O

How the values were obtained:
Format in all cases: cell-based
[1] = molecular target: T1, hGIPR (Homo sapiens, UniProt P48546); assay: hGIPR CreLuc reporter gene assay in 0.5% and 100% plasma
T1 construct: expressed in transfected cells; host or cells: CHO cells carrying a CRE-luciferase reporter gene
T1 sequence (P48546 22-466): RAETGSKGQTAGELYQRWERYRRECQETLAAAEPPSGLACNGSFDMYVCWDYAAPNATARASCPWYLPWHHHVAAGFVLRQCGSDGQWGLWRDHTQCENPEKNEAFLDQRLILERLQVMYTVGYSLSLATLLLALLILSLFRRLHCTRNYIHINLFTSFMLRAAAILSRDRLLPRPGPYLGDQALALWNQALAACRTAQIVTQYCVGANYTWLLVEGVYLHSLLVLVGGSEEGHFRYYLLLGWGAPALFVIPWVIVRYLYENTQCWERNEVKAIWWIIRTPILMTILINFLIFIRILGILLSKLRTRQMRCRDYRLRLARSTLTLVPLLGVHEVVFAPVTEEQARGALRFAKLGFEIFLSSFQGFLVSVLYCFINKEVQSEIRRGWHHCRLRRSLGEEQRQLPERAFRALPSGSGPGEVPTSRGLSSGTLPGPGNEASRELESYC
Method in brief: (§1)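 Agonist EC50s came from 8-concentration curves over four decades, fitted by non-linear variable-slope regression of CRE-driven luciferase luminescence. Cells were exposed 4 h at 37 °C, in buffer with 0.5% human plasma or in 100% plasma; GIPR was expressed in CHO cells, GLP-1R and NPY2R in HEK cells.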

[2] = molecular target: T2, hGLP1R (Homo sapiens, UniProt P43220); assay: hGLP1R CreLuc reporter gene assay in 0.5% and 100% plasma
T2 construct: expressed in transfected cells; host or cells: HEK-293 cells carrying a CRE-luciferase reporter gene
Method in brief: as §1

[3] = molecular target: T3, hNPY2R (Homo sapiens, UniProt P49146); assay: hNPY2R CreLuc reporter gene assay in 0.5% and 100% plasma
T3 construct: expressed in transfected cells; host or cells: HEK-293 cells carrying a CRE-luciferase reporter gene
T3 sequence (P49146 1-381): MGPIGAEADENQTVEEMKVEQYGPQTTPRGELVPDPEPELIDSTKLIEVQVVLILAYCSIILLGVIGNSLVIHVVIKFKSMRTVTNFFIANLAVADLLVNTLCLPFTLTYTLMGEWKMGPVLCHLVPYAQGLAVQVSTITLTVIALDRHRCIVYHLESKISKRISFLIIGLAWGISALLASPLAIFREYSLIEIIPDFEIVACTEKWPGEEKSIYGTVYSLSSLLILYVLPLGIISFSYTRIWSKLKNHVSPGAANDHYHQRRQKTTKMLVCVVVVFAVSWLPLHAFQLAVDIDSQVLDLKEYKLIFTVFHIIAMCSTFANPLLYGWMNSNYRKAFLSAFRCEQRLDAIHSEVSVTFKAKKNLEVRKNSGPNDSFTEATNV
Method in brief: as §1

[4] = CreLuc reporter gene assay, 0.5% human plasma, read-out: hGIPR 0.5% hP
[5] = CreLuc reporter gene assay, 0.5% human plasma, read-out: hGLP1R 0.5% hP
[6] = CreLuc reporter gene assay, 100% human plasma, read-out: hGLP1R 100% hP
[7] = CreLuc reporter gene assay, 0.5% human plasma, read-out: hNPY2R 0.5% hP
[8] = CreLuc reporter gene assay, 100% human plasma, read-out: hNPY2R 100% hP
[9] = CreLuc reporter gene assay, 100% human plasma, read-out: hGIPR 100% hP

T2 sequence (P43220 24-463): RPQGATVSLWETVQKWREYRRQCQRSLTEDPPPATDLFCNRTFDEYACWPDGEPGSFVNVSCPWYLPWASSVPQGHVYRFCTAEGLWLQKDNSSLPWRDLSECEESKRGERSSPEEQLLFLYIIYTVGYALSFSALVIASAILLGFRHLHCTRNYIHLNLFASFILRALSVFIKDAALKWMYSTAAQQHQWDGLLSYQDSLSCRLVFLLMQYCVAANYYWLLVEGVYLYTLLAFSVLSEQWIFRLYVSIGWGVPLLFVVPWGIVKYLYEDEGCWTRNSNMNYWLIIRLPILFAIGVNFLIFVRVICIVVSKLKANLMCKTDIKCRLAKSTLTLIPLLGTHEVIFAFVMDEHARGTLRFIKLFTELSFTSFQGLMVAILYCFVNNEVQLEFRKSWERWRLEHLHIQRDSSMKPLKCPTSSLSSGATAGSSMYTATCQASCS

| Compound | EC50 [1, 4] [nM] | EC50 [2, 5] [nM] | EC50 [2, 6] [nM] | EC50 [3, 7] [nM] | EC50 [3, 8] [nM] | EC50 [1, 9] [nM] | EC50 ([1]; hGIPR 0.5% hP) [nM] | EC50 ([2]; hGLP1R 0.5% hP) [nM] | EC50 ([2]; hGLP1R 100% hP) [nM] | EC50 ([3]; hNPY2R 0.5% hP) [nM] |
| --- | --- | --- | --- | --- | --- | --- | --- | --- | --- | --- |
| H-Y[Aib]EGTFTSDYSI[Aib]LEKQAQ[Aib]AFVQWLIK([εLys-γGlu-γGlu-γGlu-γGlu-γGlu-C20 diacid])GGPSEYASLRHYYNWLTRQRY-NH2 [Compound 189, Y-Aib-E-G-T-F-T-S-D-Y-S-I-Aib-L-E-K-Q-A-Q-Aib-A-F-V-Q-W-L-I-K(1,3)-GGPSEYASLRHYYNWLTRQRY-NH2.C20DA-gGlu-gGlu-gGlu-gGlu-gGlu-eLys(1,2)] | 0.31 | 0.21 | 10.2 | 8.03 | 45.8 | – | – | – | – | – |
| H-Y[Aib]EGTFTSDYSI[Aib]LEKQAQ[Aib]AFVEWLIK([AEEA-AEEA-γGlu-γGlu-γGlu-C18 diacid])GGPESGASLRHYYNWLTRQRY-NH2 [Compound 166, Y-Aib-E-G-T-F-T-S-D-Y-S-I-Aib-L-E-K-Q-A-Q-Aib-A-F-V-E-W-L-I-K(1,3)-GGPESGASLRHYYNWLTRQRY-NH2.C18DA-gGlu-gGlu-gGlu-OEG-OEG(1,2)] | 0.08 | 0.07 | 4.24 | 12.5 | – | 0.64 | – | – | – | – |
| H-Y[Aib]EGTFTSDYSI[Aib]LEKQAQ[Aib]EFVEWLIK([AEEA-AEEA-γGlu-γGlu-γGlu-γGlu-C18 diacid])GGPSSPASLRHYYNWLTRQRY-NH2 [Compound 56, Y-Aib-E-G-T-F-T-S-D-Y-S-I-Aib-L-E-K-Q-A-Q-Aib-E-F-V-E-W-L-I-K(1,3)-GGPSSPASLRHYYNWLTRQRY-NH2.C18DA-gGlu-gGlu-gGlu-gGlu-OEG-OEG(1,2)] | 0.27 | 0.25 | 8.97 | 27.3 | 48.8 | – | – | – | – | – |
| H-Y[Aib]EGTFTSDYSI[Aib]LEKQAQ[Aib]AFVEWLIK([εLys-γGlu-γGlu-γGlu-γGlu-γGlu-γGlu-C20 diacid])GGPSSGIELRHFLNHLTRQRY-NH2 [Compound 2, Y-Aib-E-G-T-F-T-S-D-Y-S-I-Aib-L-E-K-Q-A-Q-Aib-A-F-V-E-W-L-I-K(1,3)-GGPSSGIELRHFLNHLTRQRY-NH2.C20DA-gGlu-gGlu-gGlu-gGlu-gGlu-gGlu-eLys(1,2)] | 0.35 | 0.1 | 1.39 | > 99.9 | 563 | 1.56 | – | – | – | – |
| H-Y[Aib]EGTFTSDYSI[Aib]LEKQAQ[Aib]AFVEWLIK([γGlu-γGlu-γGlu-γGlu-C18 diacid])GGPEEGASLRHYYNWLTRQRY-NH2 [Compound 272, Y-Aib-E-G-T-F-T-S-D-Y-S-I-Aib-L-E-K-Q-A-Q-Aib-A-F-V-E-W-L-I-K(1,3)-GGPEEGASLRHYYNWLTRQRY-NH2.C18DA-gGlu-gGlu-gGlu-gGlu(1,2)] | 0.24 | 0.31 | – | 23.8 | – | 3.01 | – | – | – | – |
| H-Y[Aib]EGTFTSDYSI[Aib]LEKQAQ[Aib]AFVQWLIK([εLys-γGlu-γGlu-γGlu-γGlu-γGlu-γGlu-C18 diacid])GGPEEGASLRHYYNWLTRQRY-NH2 [Compound 149, Y-Aib-E-G-T-F-T-S-D-Y-S-I-Aib-L-E-K-Q-A-Q-Aib-A-F-V-Q-W-L-I-K(1,3)-GGPEEGASLRHYYNWLTRQRY-NH2.C18DA-gGlu-gGlu-gGlu-gGlu-gGlu-gGlu-eLys(1,2)] | 0.58 | 0.15 | 4.76 | 18.6 | – | 0.79 | – | – | – | – |
| H-Y[Aib]EGTFTSDYSI[Aib]LEKQAE[Aib]AFVQWLIK([εLys-γGlu-γGlu-γGlu-γGlu-C18 diacid])GGPSEPASLRHYYNWLTRQRY-NH2 [Compound 54, Y-Aib-E-G-T-F-T-S-D-Y-S-I-Aib-L-E-K-Q-A-E-Aib-A-F-V-Q-W-L-I-K(1,3)-GGPSEPASLRHYYNWLTRQRY-NH2.C18DA-gGlu-gGlu-gGlu-gGlu-eLys(1,2)] | 0.24 | 0.22 | 7.71 | 14 | – | – | – | – | – | – |
| H-Y[Aib]EGTFTSDYSI[Aib]LEKQAQ[Aib]AFVQWLIK([γGlu-γGlu-γGlu-γGlu-γGlu-C18 diacid])GGPESPASLRHYYNWLTRQRY-NH2 [Compound 12, Y-Aib-E-G-T-F-T-S-D-Y-S-I-Aib-L-E-K-Q-A-Q-Aib-A-F-V-Q-W-L-I-K(1,3)-GGPESPASLRHYYNWLTRQRY-NH2.C18DA-gGlu-gGlu-gGlu-gGlu-gGlu(1,2)] | 0.14 | 0.11 | 4.76 | 11.9 | 45.8 | – | – | – | – | – |
| CC[C@H](C)[C@H](NC(=O)[C@H](CC(C)C)NC(=O)[C@H](Cc1c[nH]c2ccccc12)NC(=O)[C@H](CCC(=O)O)NC(=O)[C@@H](NC(=O)[C@H](Cc1ccccc1)NC(=O)[C@H](C)NC(=O)C(C)(C)NC(=O)[C@H](CCC(N)=O)NC(=O)[C@H](C)NC(=O)[C@H](CCC(N)=O)NC(=O)[C@H](CCCCN)NC(=O)[C@H](CCC(=O)O)NC(=O)[C@H](CC(C)C)NC(=O)C(C)(C)NC(=O)[C@@H](NC(=O)[C@H](CO)NC(=O)[C@H](Cc1ccc(O)cc1)NC(=O)[C@H](CC(=O)O)NC(=O)[C@H](CO)NC(=O)[C@@H](NC(=O)[C@H](Cc1ccccc1)NC(=O)[C@@H](NC(=O)CNC(=O)[C@H](CC(=O)O)NC(=O)C(C)(C)NC(=O)[C@@H](N)Cc1ccc(O)cc1)[C@@H](C)O)[C@@H](C)O)[C@@H](C)CC)C(C)C)C(=O)N[C@@H](CCCCNC(=O)[C@@H](N)CCCCNC(=O)CC[C@H](NC(=O)CC[C@H](NC(=O)CC[C@H](NC(=O)CC[C@H](NC(=O)CC[C@H](NC(=O)CC[C@H](NC(=O)CCCCCCCCCCCCCCCCCCC(=O)O)C(=O)O)C(=O)O)C(=O)O)C(=O)O)C(=O)O)C(=O)O)C(=O)NCC(=O)NCC(=O)N1CCC[C@H]1C(=O)N[C@@H](CO)C(=O)N[C@@H](CO)C(=O)NCC(=O)N[C@@H](C)C(=O)N[C@@H](CO)C(=O)N[C@@H](CC(C)C)C(=O)N[C@@H](CCCNC(=N)N)C(=O)N[C@@H](Cc1c[nH]cn1)C(=O)N[C@@H](Cc1ccc(O)cc1)C(=O)N[C@@H](Cc1ccc(O)cc1)C(=O)N[C@@H](CC(N)=O)C(=O)N[C@@H](Cc1c[nH]c2ccccc12)C(=O)N[C@@H](CC(C)C)C(=O)N[C@H](C(=O)N[C@@H](CCCNC(=N)N)C(=O)N[C@@H](CCC(N)=O)C(=O)N[C@@H](CCCNC(=N)N)C(=O)N[C@@H](Cc1ccc(O)cc1)C(N)=O)[C@@H](C)O [Compound 87, Y-Aib-D-G-T-F-T-S-D-Y-S-I-Aib-L-E-K-Q-A-Q-Aib-A-F-V-E-W-L-I-K(1,3)-GGPSSGASLRHYYNWLTRQRY-NH2.C20DA-gGlu-gGlu-gGlu-gGlu-gGlu-gGlu-eLys(1,2)] | – | – | – | – | – | – | 0.58 | 0.08 | 2 | 20.7 |
| H-Y[Aib]EGTFTSDYSI[Aib]LEKQAE[Aib]AFVQWLIK([AEEA-AEEA-γGlu-γGlu-γGlu-γGlu-C18 diacid])GGPSEGASLRHYYNWLTRQRY-NH2 [Compound 156, Y-Aib-E-G-T-F-T-S-D-Y-S-I-Aib-L-E-K-Q-A-E-Aib-A-F-V-Q-W-L-I-K(1,3)-GGPSEGASLRHYYNWLTRQRY-NH2.C18DA-gGlu-gGlu-gGlu-gGlu-OEG-OEG(1,2)] | 0.16 | 0.18 | – | 13.5 | 26.5 | – | – | – | – | – |
| H-Y[Aib]EGTFTSDYSI[Aib]LEKQAQ[Aib]AFVEWLIK([εLys-γGlu-γGlu-γGlu-γGlu-γGlu-C18 diacid])GGPSEPASLRHYYNWLTRQRY-NH2 [Compound 263, Y-Aib-E-G-T-F-T-S-D-Y-S-I-Aib-L-E-K-Q-A-Q-Aib-A-F-V-E-W-L-I-K(1,3)-GGPSEPASLRHYYNWLTRQRY-NH2.C18DA-gGlu-gGlu-gGlu-gGlu-gGlu-eLys(1,2)] | 0.12 | 0.32 | – | 15.8 | – | 1.5 | – | – | – | – |
